Data taken from US7968098B2, “HLA-A24-binding KIF-derived peptide” (Kurume University, priority 2006, dated 2011).
Where two headings read alike, the source gives them in different places.

Tests used:
[1] = system: anti-peptide immunoglobulin G (IgG) in plasma; assay: Anti-peptide IgG in plasma measured by the Luminex system; assay type: binding, human; settings: for Positive cases/total cases, Patients: Table 3, IgGs reactive to peptide in plasma of glioma patients; for Positive cases/total cases, Healthy donors: Table 3, IgGs reactive to peptide in plasma of healthy donors; for Positive cases/total cases, Total: Table 3, patients plus healthy donors; for Recognition by IgGs in the plasma compared with the other peptides: plasma of glioma patients and healthy donors; for Total (IgG-positive cases/total cases): positive = >1.25 times no peptide control
Description: The levels of anti-peptide immunoglobulin G (IgG) were measured by the Luminex™ system as previously reported (Komatsu N et al, Scand J Clin Invest 2004; 64: 1-11). In brief, plasma was incubated with 25 μl of peptide-coupled color-coded beads (Luminex Corp., Austin, Tex., USA) for 2 h at room temperature on a plate shaker. After incubation, the mixture was washed with a vacuum manifold apparatus and incubated with 100 μl of biotinylated goat anti-human IgG (BA-3080, Vector Laboratories, Burlingame, Calif., USA) for 1 h at room temperature. The plate was then washed, and 100 μl of streptavidin-PE (S-866, Molecular Probes, Eugene, Oreg., USA) was added to each well and was incubated for 30 min at room temperature on a plate shaker. The bound beads were washed three times followed by the addition of 100 μl of Tween-PBS to each well. Fifty μl of each sample was then examined using the Luminex™ system.
Next, the abilities of the KIF-derived peptides to be recognized by IgGs of glioma patients were examined, because IgGs reactive to CTL-directed peptides are detectable in the plasma of patients with different types of cancer (Nakatsura T et al, Eur J Immunol 32: 826-836, 2002), along with that levels of IgG well correlated with clinical responses of patients who received peptide vaccination as reported previously (Mine T et al, Clin Cancer Res 10: 929-937, 2004; Yajima N et al, Clin Cancer Res 11: 5900-5911, 2005). IgGs reactive to a corresponding peptide were judged to be significant when the immunofluorescence intensity in 1:100-diluted plasma exceeded 1.25 times that of the control samples with no peptides. […] Based on these findings, these 8 KIF peptides (3 for KIF1C, 3 for KIF3C, and 2 for KIF21B) were the focus of the following experiments.

[2] = system: PBMCs of HLA-A24+ glioma patients; assay type: cell-based, human; settings: for IFN-γ: vs HIV peptide
[3] = HLA-A24+ glioma patients, positive = P<0.05 and >100 pg/ml IFN-γ over HIV peptide
[4] = PBMCs of HLA-A24+ glioma Patient 1, 10 μg/ml peptide
[5] = PBMCs of HLA-A24+ glioma Patient 2, 10 μg/ml peptide
[6] = PBMCs of HLA-A24+ glioma Patient 3, 10 μg/ml peptide
[7] = PBMCs of HLA-A24+ glioma Patient 7, 10 μg/ml peptide
[8] = PBMCs of HLA-A24+ glioma Patient 9, 10 μg/ml peptide
[9] = PBMCs of HLA-A24+ glioma Patient 10, 10 μg/ml peptide
[10] = PBMCs of HLA-A24+ glioma Patient 4, 10 μg/ml peptide
[11] = Healthy donor 2, 1:100-diluted plasma
[12] = Healthy donor 4, 1:100-diluted plasma
[13] = glioma Patient 4, 1:100-diluted plasma
[14] = glioma Patient 8, 1:100-diluted plasma
[15] = glioma Patient 9, 1:100-diluted plasma
[16] = PBMCs of HLA-A24+ glioma Patient 5, 10 μg/ml peptide
[17] = PBMCs of HLA-A24+ glioma Patient 8, 10 μg/ml peptide
[18] = Healthy donor 1, 1:100-diluted plasma
[19] = Healthy donor 5, 1:100-diluted plasma
[20] = glioma Patient 1, 1:100-diluted plasma
[21] = glioma Patient 5, 1:100-diluted plasma
[22] = glioma Patient 7, 1:100-diluted plasma
[23] = Healthy donor 3, 1:100-diluted plasma
[24] = glioma Patient 2, 1:100-diluted plasma
[25] = glioma Patient 3, 1:100-diluted plasma

In the case of GYASTDEEI (KIF21B 220-228 peptide), the “Positive cases/total cases, Patients” value [1] is reported as 2/10, the “Positive cases/total cases, Healthy donors” value [1] is reported as 3/10 and the “Positive cases/total cases, Total” value [1] is reported as 5/20. The “Recognition by IgGs in the plasma compared with the other peptides” value (“Recognition … compared with the other peptides” below) [1] was “more frequently”, the “Total (patients with induction of peptide-reactive CTLs)” value [2, 3] was 4/10 and the IFN-γ [2, 4] was 0 pg/mL. The IFN-γ [2, 5] was 29 pg/mL, the IFN-γ [2, 6] was 56 pg/mL and the IFN-γ [2, 7] was 51 pg/mL. The IFN-γ [2, 8] was 0 pg/mL and the IFN-γ [2, 9] was 0 pg/mL.

HYDGIECLAI (KIF21B 621-630 peptide) was tested, and the “Positive cases/total cases, Patients” value [1] was 2/10, the “Positive cases/total cases, Healthy donors” value [1] was 5/10 and the “Positive cases/total cases, Total” value [1] was 7/20. For the same sequence, the “Recognition … compared with the other peptides” value [1] was “more frequently”, the “Total (patients with induction of peptide-reactive CTLs)” value [2, 3] was 3/10 and the IFN-γ [2, 4] was 0 pg/mL. It also gave an IFN-γ [2, 5] of 10 pg/mL, an IFN-γ [2, 6] of 0 pg/mL and an IFN-γ [2, 10] of 0 pg/mL. It also gave an IFN-γ [2, 7] of 93 pg/mL, an IFN-γ [2, 8] of 0 pg/mL and an IFN-γ [2, 9] of 0 pg/mL.

In the case of IYCERVRDL (KIF1C 149-157 peptide), the Immunofluoresence intensity [1, 11] is reported as 31.8, the Immunofluoresence intensity [1, 12] is reported as 47.8 and the “Total (IgG-positive cases/total cases)” value ([1]; Table 2, glioma patients) is reported as 7/10. The “Total (IgG-positive cases/total cases)” value ([1]; Table 2, healthy donors) was 8/10, the “Positive cases/total cases, Patients” value [1] was 7/10 and the “Positive cases/total cases, Healthy donors” value [1] was 8/10. The “Positive cases/total cases, Total” value [1] was 15/20, the Immunofluoresence intensity [1, 13] was 29.5 and the Immunofluoresence intensity [1, 14] was 12.3. The Immunofluoresence intensity [1, 15] was 27.3, the “Recognition … compared with the other peptides” value [1] was “more frequently” and the “Total (patients with induction of peptide-reactive CTLs)” value [2, 3] was 4/10. The IFN-γ [2, 4] was 92 pg/mL, the IFN-γ [2, 5] was 0 pg/mL and the IFN-γ [2, 10] was 50 pg/mL. It also gave an IFN-γ [2, 16] of 0 pg/mL, an IFN-γ [2, 17] of 0 pg/mL and an IFN-γ [2, 9] of 0 pg/mL.

In the case of NYLQEQKERL (KIF3C 458-467 peptide), the “Positive cases/total cases, Patients” value [1] is reported as 4/10, the “Positive cases/total cases, Healthy donors” value [1] is reported as 4/10 and the “Positive cases/total cases, Total” value [1] is reported as 8/20. For the same sequence, the “Recognition … compared with the other peptides” value [1] was “more frequently”, the “Total (patients with induction of peptide-reactive CTLs)” value [2, 3] was 3/10 and the IFN-γ [2, 4] was 34 pg/mL. For the same sequence, the IFN-γ [2, 5] was 0 pg/mL, the IFN-γ [2, 6] was 30 pg/mL and the IFN-γ [2, 16] was 66 pg/mL. The IFN-γ ([2]; PBMCs of HLA-A24+ glioma Patient 6, 10 μg/ml peptide) was 55 pg/mL, the IFN-γ [2, 17] was 38 pg/mL and the IFN-γ [2, 9] was 0 pg/mL.

Work on RFVPPHDCKL (KIF1C 968-977 peptide) yielded an Immunofluoresence intensity [1, 18] of 117.0, an Immunofluoresence intensity [1, 11] of 23.5 and an Immunofluoresence intensity [1, 12] of 33.0. The Immunofluoresence intensity [1, 19] was 58.5, the Immunofluoresence intensity ([1]; Healthy donor 9, 1:100-diluted plasma) was 32.3 and the “Total (IgG-positive cases/total cases)” value ([1]; Table 2, glioma patients) was 4/10. For the same sequence, the “Total (IgG-positive cases/total cases)” value ([1]; Table 2, healthy donors) was 5/10, the “Positive cases/total cases, Patients” value [1] was 4/10 and the “Positive cases/total cases, Healthy donors” value [1] was 5/10. For the same sequence, the “Positive cases/total cases, Total” value [1] was 9/20, the Immunofluoresence intensity [1, 20] was 77.0 and the Immunofluoresence intensity [1, 13] was 27.0. It also gave an Immunofluoresence intensity [1, 21] of 97.0, an Immunofluoresence intensity [1, 22] of 74.8 and an Immunofluoresence intensity [1, 14] of 12.5. The Immunofluoresence intensity [1, 15] was 19.5.

With “RFYIQMCTEL (Flu virus-derived peptide) [reference compound]” the “Total (patients with induction of peptide-reactive CTLs)” value [2, 3] was 3/10, the IFN-γ [2, 4] was 29 pg/mL and the IFN-γ [2, 5] was 0 pg/mL. For the same sequence, the IFN-γ [2, 10] was 0 pg/mL, the IFN-γ [2, 7] was 95 pg/mL and the IFN-γ [2, 17] was 0 pg/mL. The IFN-γ [2, 8] was 0 pg/mL and the IFN-γ [2, 9] was 0 pg/mL.

In the case of RYADRTKQI (KIF1C 340-348 peptide), the Immunofluoresence intensity [1, 11] is reported as 21.5, the Immunofluoresence intensity [1, 12] is reported as 45.3 and the Immunofluoresence intensity [1, 19] is reported as 59.0. For the same sequence, the “Total (IgG-positive cases/total cases)” value ([1]; Table 2, glioma patients) was 7/10, the “Total (IgG-positive cases/total cases)” value ([1]; Table 2, healthy donors) was 7/10 and the “Positive cases/total cases, Patients” value [1] was 7/10. For the same sequence, the “Positive cases/total cases, Healthy donors” value [1] was 7/10, the “Positive cases/total cases, Total” value [1] was 14/20 and the Immunofluoresence intensity [1, 13] was 26.0. The Immunofluoresence intensity [1, 14] was 14.8, the Immunofluoresence intensity [1, 15] was 17.5 and the “Recognition … compared with the other peptides” value [1] was “more frequently”. For the same sequence, the “Total (patients with induction of peptide-reactive CTLs)” value [2, 3] was 3/10, the IFN-γ [2, 4] was 66 pg/mL and the IFN-γ [2, 5] was 16 pg/mL. The IFN-γ [2, 10] was 80 pg/mL, the IFN-γ [2, 7] was 65 pg/mL and the IFN-γ [2, 17] was 96 pg/mL. The IFN-γ [2, 8] was 52 pg/mL and the IFN-γ [2, 9] was 0 pg/mL.

In the case of RYRAENIMF (KIF3C 702-710 peptide), the “Positive cases/total cases, Patients” value [1] is reported as 7/10, the “Positive cases/total cases, Healthy donors” value [1] is reported as 9/10 and the “Positive cases/total cases, Total” value [1] is reported as 16/20. The “Recognition … compared with the other peptides” value [1] was “more frequently”, the “Total (patients with induction of peptide-reactive CTLs)” value [2, 3] was 3/10 and the IFN-γ [2, 4] was 11 pg/mL. The IFN-γ [2, 5] was 0 pg/mL, the IFN-γ [2, 6] was 73 pg/mL and the IFN-γ [2, 10] was 0 pg/mL. For the same sequence, the IFN-γ [2, 17] was 96 pg/mL, the IFN-γ [2, 8] was 22 pg/mL and the IFN-γ [2, 9] was 0 pg/mL.

RYRAENIMFL (KIF3C 702-711 peptide) was tested, and the “Positive cases/total cases, Patients” value [1] was 2/10, the “Positive cases/total cases, Healthy donors” value [1] was 5/10 and the “Positive cases/total cases, Total” value [1] was 7/20.

With SYDESLSTL (KIF3C 347-355 peptide) the “Positive cases/total cases, Patients” value [1] was 0/10, the “Positive cases/total cases, Healthy donors” value [1] was 0/10 and the “Positive cases/total cases, Total” value [1] was 0/20.

For TYGPVFMCL [EBV, reference compound], the “Total (patients with induction of peptide-reactive CTLs)” value [2] was 1/10.

In the case of VYIKDLSSF (KIF3C 174-182 peptide), the “Positive cases/total cases, Patients” value [1] is reported as 1/10, the “Positive cases/total cases, Healthy donors” value [1] is reported as 2/10 and the “Positive cases/total cases, Total” value [1] is reported as 3/20.

Sequence VYQIPQRRRL (KIF1C 725-734 peptide) has an Immunofluoresence intensity [1, 18] of 99.5, an Immunofluoresence intensity [1, 11] of 19.5 and an Immunofluoresence intensity [1, 23] of 66.8. For the same sequence, the Immunofluoresence intensity [1, 12] was 30.5, the Immunofluoresence intensity [1, 19] was 52.5 and the “Total (IgG-positive cases/total cases)” value ([1]; Table 2, glioma patients) was 4/10. For the same sequence, the “Total (IgG-positive cases/total cases)” value ([1]; Table 2, healthy donors) was 5/10, the “Positive cases/total cases, Patients” value [1] was 3/10 and the “Positive cases/total cases, Healthy donors” value [1] was 5/10. The “Positive cases/total cases, Total” value [1] was 8/20, the Immunofluoresence intensity [1, 20] was 65.5 and the Immunofluoresence intensity [1, 24] was 85.3. It also gave an Immunofluoresence intensity [1, 25] of 61.3, an Immunofluoresence intensity [1, 13] of 19.5 and an Immunofluoresence intensity [1, 21] of 98.5. It also gave an Immunofluoresence intensity [1, 14] of 10.0 and an Immunofluoresence intensity [1, 15] of 9.3.

VYRDIGEEML (KIF1C 73-82 peptide) showed an Immunofluoresence intensity [1, 11] of 19.5, an Immunofluoresence intensity [1, 23] of 64.5 and an Immunofluoresence intensity [1, 12] of 29.5. For the same sequence, the Immunofluoresence intensity [1, 19] was 50.0, the “Total (IgG-positive cases/total cases)” value ([1]; Table 2, glioma patients) was 3/10 and the “Total (IgG-positive cases/total cases)” value ([1]; Table 2, healthy donors) was 6/10. The “Positive cases/total cases, Patients” value [1] was 3/10, the “Positive cases/total cases, Healthy donors” value [1] was 6/10 and the “Positive cases/total cases, Total” value [1] was 9/20. The Immunofluoresence intensity [1, 20] was 57.8, the Immunofluoresence intensity [1, 24] was 80.5 and the Immunofluoresence intensity [1, 25] was 46.8. The Immunofluoresence intensity [1, 13] was 17.5, the Immunofluoresence intensity [1, 22] was 68.5 and the Immunofluoresence intensity [1, 14] was 11.5. It also gave an Immunofluoresence intensity [1, 15] of 11.0.
